According to patent US8017773B2, “Cyclohexyl sulfonamide derivatives” (Hoffmann-La Roche Inc., priority 2006, dated 2011):

Target: T1, histamine 3 receptor (H3R) (Homo sapiens, UniProt Q9Y5N1)
T1 construct: expressed in transfected cells; host or cells: CHO cells (HR3-CHO), membrane preparation
Test: Binding assay with 3H-(R)α-methylhistamine, competition binding on membranes of the human HR3-CHO cell line
Conditions: 3H(R)α-Methylhistamine 1 nM, Ki calculated from IC50 by Cheng-Prusoff
Description: Binding Assay with ^3H-(R)α-methylhistamine
Saturation binding experiments were performed using HR3-CHO membranes prepared as described in Takahashi, K, Tokita, S., Kotani, H. (2003) J. Pharmacol. Exp. Therapeutics 307, 213-218.
An appropriate amount of membrane (60 to 80 μg protein/well) was incubated with increasing concentrations of ^3H(R)α-Methylhistamine di-hydrochloride (0.10 to 10 nM). Non specific binding was determined using a 200 fold excess of cold (R)α-Methylhistamine dihydrobromide (500 nM final concentration). The incubation was carried out at room temperature (in deep-well plates shaking for three hours). The final volume in each well was 250 μl. The incubation was followed by rapid filtration on GF/B filters (pre-soaked with 100 μl of 0.5% PEI in Tris 50 mM shaking at 200 rpm for two hours). The filtration was made using a cell-harvester and the filter plates were then washed five times with ice cold washing buffer containing 0.5 M NaCl. After harvesting, the plates were dried at 55° C. for 60 min, then we added scintillation fluid (Microscint 40, 40 microl in each well) and the amount of radioactivity on the filter was determined in Packard top-counter after shaking the plates for two hours at 200 rpm at room temperature.
Binding Buffer: 50 mM Tris-HCl pH 7.4 and 5 mM MgCl2×6H2O pH 7.4. Washing Buffer: 50 mM Tris-HCl pH 7.4 and 5 mM MgCl2×6H2O and 0.5 M NaCl pH 7.4.
Indirect measurement of affinity of H3R inverse agonists: twelve increasing concentrations (ranging from 10 μM to 0.3 nM) of the selected compounds were always tested in competition binding experiments using membrane of the human HR3-CHO cell line. An appropriate amount of protein, e.g. approximately 500 cpm binding of RAMH at Kd, were incubated for 1 hour at room temperature in 250 μl final volume in 96-well plates in presence of ^3H(R)α-Methylhistamine (1 nM final concentration=Kd). […]
All compounds were tested at a single concentration in duplicates. […] Ki's were calculated from IC50 based on Cheng-Prusoff equation (Cheng, Y, Prusoff, W H (1973) Biochem Pharmacol 22, 3099-3108).

T1 sequence (Q9Y5N1 whole entry): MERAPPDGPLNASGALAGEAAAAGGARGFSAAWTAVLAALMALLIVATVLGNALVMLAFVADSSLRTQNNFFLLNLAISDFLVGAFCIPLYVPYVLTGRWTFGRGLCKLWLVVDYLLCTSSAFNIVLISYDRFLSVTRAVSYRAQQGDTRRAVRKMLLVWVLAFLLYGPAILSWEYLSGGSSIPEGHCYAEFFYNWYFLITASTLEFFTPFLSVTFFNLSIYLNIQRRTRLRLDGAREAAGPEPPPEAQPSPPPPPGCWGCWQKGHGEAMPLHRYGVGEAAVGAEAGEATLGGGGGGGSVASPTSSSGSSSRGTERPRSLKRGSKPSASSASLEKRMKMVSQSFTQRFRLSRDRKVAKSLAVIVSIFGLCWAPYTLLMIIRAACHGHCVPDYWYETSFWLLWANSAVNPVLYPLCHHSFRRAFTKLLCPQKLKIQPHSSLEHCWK

Ki [nM] | Structure (SMILES)
8.9 | CC(C)N1CCN(C(=O)[C@H]2CC[C@H](N(C(C)C)S(=O)(=O)c3ccc(F)c(Cl)c3)CC2)CC1 [Example 64, 3-chloro-4-fluoro-N-isopropyl-N-[trans-4-(4-isopropyl-piperazine-1-carbonyl)-cyclohexyl]-benzenesulfonamide]
23.4 | COc1ccc(S(=O)(=O)N[C@H]2CC[C@H](C(=O)N3CCN(C(C)C)CC3)CC2)c(OC)c1 [Example 15, N-{trans-4-[(4-isopropyl-piperazin-1-yl)carbonyl]-cyclohexyl}-2,4-dimethoxy-benzenesulfonamide]
54.8 | CCCS(=O)(=O)N[C@H]1CC[C@H](C(=O)N2CCN(C(C)C)CC2)CC1 [Example 1, N-{trans-4-[(4-isopropylpiperazin-1-yl)carbonyl]cyclohexyl}propane-1-sulfonamide]
